From patent US6627664B2, “Perylenequinones for use as sonosensitizers” (Altachem Pharma Ltd., priority 2001, dated 2003)
Where two headings read alike, the source gives them in different places. Marks after values point to notes of the source that are not given here.

Experiments:
sarcoma 180 cells [1] = conditions: 56 mg/kg administered before insonation; cited from earlier work
sarcoma 180 cells [2] = conditions: 80 μM, insonated, versus ultrasound alone; cited from earlier work
HL-60 cells = assay: Sonodynamic toxicity (insonation, surviving fraction); format: cell-based, human
Protocol: Sonodynamic toxicity of two perylenequinone derivatives in human promyelocytic leukemia cells in vitro, with respect to a positive control, hematoporphyrin at 1 mM.
HL-60 cells were treated with perylenequinone sensitizers and insonated as described above. The surviving fractions were plotted against sensitizer concentration. […] Cell survival decreased steeply over the next two decades of sensitizer concentration.

cells = conditions: for Photopotentiation Factor: LD50 dark divided by LD50 light; for LD50 Light: light dose not fixed, 0.75-1.0 J/cm2 of 630 nm light
Excerpt: As used herein, “photopotentiation factor” refers to the property of the compound(s) to exert light- or sound-mediated toxicity in excess of its (their) inherent unactivated toxicity. […] Where the term “LD50” has been used above, the term “IC50” may be substituted, to address the bioassays that concern metabolic activity rather than the endpoint of lethality, loss of reproductive capability, or clonogenic death. The relative photoactivation efficiency of a compound may also be determined using a clonogenic assay, an assay that is well known to those skilled in the art.
In accordance with the present invention, a desirable PQP derivative is one that is non-toxic (or of low toxicity) at high drug concentrations without activation, i.e., without light (also referred to as “dark”), and/or without sound, and is toxic at low concentrations when light of the appropriate wavelength, or sound of the appropriate frequency, is applied. As is recognized by those skilled in the art, the most desirable compounds are those that provide a wide range of non-toxic doses in an unactivated state, as this characteristic provides an increased safety factor for the patient.

[3] = Singlet oxygen (1O2) yield; format: physicochemical
[4] = Light absorption properties (red spectral region, 630 nm); format: physicochemical; conditions: for A630: absorbance at 630 nm
EMT6/Ed tumors = assay: EMT6/Ed tumor control after 630 nm light applied transcutaneously; format: in vivo, Balb/c mice; conditions: 50 μmol/kg body weight
Protocol: Both the concentration of drug and the dosage of light are important for treatment of tumors.
EMT6/Ed tumor control in Balb/c mice following various doses of 630 nm light applied transcutaneously. HBEA-R1 was administered at a fixed dose. True control represents animals given neither photosensitizer nor laser light. The animals were treated approximately 7 days following tumor implantation, and euthanized when tumors reached four times treatment volume.

EMT6/Ed cells [5] = assay: Cellular uptake by 14C-labeling and confocal laser scanning microscopy; conditions: CLSM
EMT6/Ed cells [6] = assay: Propidium iodide determination of apoptotic nuclei; format: cell-based
Excerpt: The background frequency of cells with apoptotic morphology is represented by the untreated control.

cell suspension = assay: Oxygen dependency of phototoxicity; format: cell-based; conditions: total absence of oxygen
Excerpt: Phototoxicity diminishes as the pO2 in the gas phase of the cell suspension is reduced for PDT treatment, from ambient to 0.0%. The oxygen enhancement ratio (O.E.R.) Is 4.0 at the D0.

EMT6/Ed cells [7] = test system: EMT6/Ed cells
cell lines = conditions: tone-burst and pulsed ultrasound; cited from earlier work
[8] = test system: uterine cervical squamous cell carcinomas; conditions: with ultrasound; cited from earlier work
[9] = insonated solutions, TMPone; cited from earlier work
[10] = same concentration as Hp; cited from earlier work

In the case of `C=Cc1c(C)c2cc3nc(c4c5[nH]c(cc6nc(cc1[nH]2)C(C)=C6CC)c(C)c5C(=O)[C@@H]4C(=O)OC)[C@@H](CCC(=O)O)[C@@H]3C` [Ph-A, Pheophorbide A], the tumor growth (sarcoma 180 cells [1]) is listed as “completely inhibited tumor growth” and the “rate of ultrasound-induced cell damage” value (sarcoma 180 cells [2]) is listed as “double”.
For demethylated HB [DMHB], the maximum sonotoxic effect (HL-60 cells; 100 μM to 1000 μM, versus 1000 μM Hp control) was “comparable to that of the Hp control”, the sonotoxicity (HL-60 cells; up to 100 μM) was “negligible sonotoxicity” and the “LD50 Dark” value (cells) was over 25 µM. The “Photopotentiation Factor” value (cells) was >5-8.3, the “LD50 Light” value (cells) was 3 to 5 µM and the “^1O2 Yield” value [3] was 0.42. The “Abs. Peak in red Spectral region” value [4] was 648* nm, the “Extinction Coefficient (× 10^−3) (630 nm)” value [4] was 4.77 × 10^−3 and the A630 [4] was 0.477. For the same compound, the Amax/solvent ([4]; solvent EtOH) was 0.469/EtOH.
With Ethanolamine-HB [HBEA-R1] the cure rate (EMT6/Ed tumors; 50 Joules of 630 nm light) was 40%, the tumor cure (EMT6/Ed tumors; 100 Joules of 630 nm light) was “approximately 90%” and the cure rates (EMT6/Ed tumors; lower light dosages) was “significantly lower”. For the same compound, the “Photopotentiation Factor” value (cells) was 100-167, the “LD50 Light” value (cells) was 0.15 µM and the “cell killing with light” value (cells; wavelengths between at least 630 and 688 nm) was “capable of killing cells”. The “LD50 Dark” value (cells; without light) was 15 to 25 µM, the “^1O2 Yield” value [3] was 0.60 and the “time until uptake is complete” value (EMT6/Ed cells [5]) was at most 2 h. The apoptotic morphology (EMT6/Ed cells [6]; PDT, within 48 hours of treatment) was 50%, the “induction of apoptosis by sensitizer alone” value (EMT6/Ed cells [6]; photosensitizing concentrations, no light) was “do not induce apoptosis” and the phototoxicity without oxygen (cell suspension) was “Evidence of type 1—mediated phototoxicity”.
With Hypocrellin B [HB, reference compound] the “cytotoxicity under uptake conditions” value (EMT6/Ed cells [7]) was “not cytotoxic”, the “time until cellular uptake reached equilibrium” value (EMT6/Ed cells [7]) was at most 15 min and the “Photopotentiation Factor” value (cells) was 10-13. The “LD50 Light” value (cells) was 1.5 to 2 µM, the “LD50 Dark” value (cells; without light) was 20 µM and the “^1O2 Yield” value [3] was 0.74. The “Abs. Peak in red Spectral region” value [4] was 658* nm, the “Extinction Coefficient (× 10^−3) (630 nm)” value [4] was 1.00 × 10^−3 and the A630 [4] was 0.100. The Amax/solvent ([4]; solvent DMF) was 0.118/DMF.
In the case of `CCOC(=O)NC1=C(N2CC2)C(=O)C(NC(=O)OCC)=C(N2CC2)C1=O` [diaziquone], the “effect in combination with ultrasound on cytotoxicity” value (cell lines) is listed as “synergistic effects” and the “antitumour effect measured by volume reduction” value [8] is listed as “significant antitumour effect”.
In the case of `COc1cccc2c1C(=O)c1c(O)c3c(c(O)c1C2=O)C[C@@](O)(C(=O)CO)C[C@@H]3O[C@H]1C[C@H](N)[C@H](O)[C@H](C)O1` [doxorubicin], the “antitumour effect measured by volume reduction” value [8] is listed as “significant antitumour effect”.
In the case of `CCCCCCCCCCOC(C)C1=C(C)c2cc3[n-]c(cc4[n-]c(cc5nc(cc1n2)C(C)=C5C(C)OCCCCCCCCCC)c(C)c4CCC(=O)NC(CC(=O)[O-])C(=O)[O-])c(CCC(=O)NC(CC(=O)[O-])C(=O)[O-])c3C.[Ga+3].[H+].[H+].[H+]` (stereo not shown) [ATX-70, 2,4-bis(1-decyloxyethyl)-Ga(lll)-1,3,5,8-tetramethylporphryin-6,7-dipropionyl diaspartic acid], the “rate of ultrasound-induced cell damage” value (sarcoma 180 cells [2]) is given as “in excess of four times”, the “levels of nitroxide relative to solutions containing Hp” value [9] is given as 2.5 times and the “ultrasound induced bleaching relative to Hp” value [10] is given as “three times as great”.
